Earlier results in patent US10751291B2, “Nanoparticulate compositions comprising interferon gamma and losartan for immunotherapy” (Yale University, priority 2013, dated 2020).

Details: oral administration

oral absorption: well absorbed
SMILES: CCCCc1nc(Cl)c(CO)n1Cc1ccc(-c2ccccc2-c2nn[nH]n2)cc1 [Losartan]
